Test results as given in PMC3996151, “Safety and pharmacological characterization of the molecular tweezer CLR01 – a broad-spectrum inhibitor of amyloid proteins’ toxicity” (BMC Pharmacology & Toxicology, 2014).
pIC50: −log10 of the molar value. Where “and” joins values, the source holds several entries; their conditions need not be identical. Equal values may be shown once. Read-outs that look alike come from different tables or passages of the source.

How the values were obtained:
3×Tg mouse model of AD = test system: 3×Tg mouse model of AD; parameters: method as in PMID 23183235; conditions: cited from earlier work
[1] = target: Poly [ADP-ribose] polymerase 1 (PARP-1); parameters: method as in T. Schrader, unpublished results; conditions: enzyme concentration of 2.3 nM; ref T. Schrader, unpublished results; cited from earlier work
[2] = parameters: method as in PMID 23183235; conditions: human plasma; cited from earlier work
[3] = target: alcohol dehydrogenase (ADH); parameters: method as in PMID 18605724; conditions: ADH concentration of 208 nM; cited from earlier work
[4] = parameters: method as in PMID 23183235; conditions: mouse liver microsomes; cited from earlier work
[5] = Blood-brain barrier permeability with 3H-CLR01 IV (scintillation counting of blood and brain); assay type: in vivo, mouse; conditions: for Blood radioactivity levels, % of the injected levels: 0.5 h following IV injection; for Brain radioactivity after double injection compared to one injection: two 11.86-μg/g injections
Method: The following groups of mice were used for CLR01 BBB penetration studies: 3×Tg and the corresponding WT mice at 2-m, 12-m, and 22 - 24-m (hereafter referred to as 22-m) of age. The groups were: 2-m WT, 2-m Tg, 12-m WT, 12-m Tg, 22-m WT, 22-m Tg. Mice were administered ^3H-CLR01 intravenously. Two μCi per gram of mouse body weight, which are equal to 11.86 μg/g of CLR01 in which ^3H-CLR01 made up 10% of the total CLR01, were injected into the jugular vein. Blood and brain were collected at 0.5, 1, 3, 8, 24, or 72 h (not all time points were collected for all groups, see the Results section). For times ≤ 3 h, mice were anesthetized by IP injection of ketamine and xylazine. The mice remained anesthetized following the injection until the specified time point, at which point they were given a lethal dose of pentobarbital. Then, blood was collected via a cardiac puncture, and the brain harvested with or without a perfusion step Pharmacokinetics of CLR01 in vivo. For time points 8–72 h, mice were not anesthetized and ^3H-CLR01 was injected into the tail vein. This change was due to the difficulty of keeping mice anesthetized for longer than 3 h. No differences were observed between mice given anesthesia and jugular vein injections and mice receiving tail vein injections.
Euthanasia procedures were the same as described above. For all mice, one hemisphere of the brain and 100–350 μl of blood were separately digested following instructions from Perkin-Elmer (document: Scintillation Cocktails and Consumables) with 1 ml Solvable (Perkin-Elmer, Waltham, MA), added to Ultima Gold Liquid Scintillation Cocktail (Perkin-Elmer) and read in a Triathler Liquid Scintillation Counter model 425–034, (Hidex, Turku, Finland). Brain permeability percentage was calculated as counts per minute (CPM) per g of brain relative to CPM per ml of blood. The data are an average of values from three mice per genotype/age/time combination.
For CLR01 transport-saturation studies using 5× the CLR01 dose, ^3H-CLR01 was kept at 10% of the total CLR01 mixture and a total of 59.3 μg of CLR01 (10 μCi) per g of mouse body weight was injected IV (22-m WT 5× dose). For CLR01 brain-accumulation studies, two 11.86-μg/g injections were administered at equal time intervals (22-m WT 2× inj). In these experiments, mice were injected at time = 0 and at t = ½ of euthanasia time. For example, in the original, single-injection experiments, a mouse would receive an injection at t = 0 and then be euthanized at t = 1 h. In this experiment, a mouse received one injection at t = 0, a second injection at t = 0.5 h, and then was euthanized at t = 1 h.
In experiments using ^3H-CLR01, urine was collected when possible over the period between injection and euthanasia. […] We could not normalize the radioactivity because the amount of urine in the bladder prior to injection and the volume produced during the experiment could not be calculated.
To correct for the radioactivity associated with blood-borne ^3H-CLR01 in the brain vasculature, we performed both perfusion and subtraction analyses. In perfusion experiments, WT and 3×Tg mice at each of the three ages analyzed (n = 3 per group) were perfused with phosphate buffered saline following euthanasia. Perfusion lasted for either 5 min or until the liver changed color from a red to yellow, whichever was longer. In other experiments, mice were not perfused, but radioactivity associated with 10 μl of blood per g of brain [29, 30] was calculated based on brain weight and blood radioactivity levels and subtracted from brain radioactivity levels. At 1 h post injection, perfusion-corrected brain values were statistically similar to subtraction-corrected brain values (Figure 5). […]

[6] = Solubility in aqueous solutions; assay type: physicochemical
[7] = target: T1, calf intestinal alkaline phosphatase (Bos taurus, UniProt P19111); experiment: In vitro dephosphorylation by alkaline phosphatase (inorganic phosphate release); assay type: in vitro ADME; conditions: up to 100 nmol CLR01, 60 min at 60°C, detection limit 5 nmol
T1 construct: purchased Promega, Madison, Wisconsin
Method: Potential dephosphorylation of CLR01 was analyzed by incubating 100 nmol CLR01 with 0.08 units of alkaline phosphatase (ALP; calf intestinal alkaline phosphatase, Promega, Madison, Wisconsin) for 60 min at 60°C. One enzymatic unit is defined as the amount of enzyme required for catalyzing the hydrolysis of 1 μmol of p-nitrophenylphosphate per minute. p-Nitrophenylphosphate disodium salt at 5–50 nmol (Fisher, Waltham, Massachusetts) was used for generation of a standard curve. The amount of inorganic phosphate generated was measured spectrophotometrically using an EnzChek Phosphate Assay kit (Life Technologies, Carlsbad, California) according to the manufacturer’s instructions on a DU-640 spectrophotometer (Beckman Coulter, Brea, California) at λ = 360 nm. Baseline values were subtracted from readings and compared to the standard curve resulting from serial ALP reactions to calculate the amount of inorganic phosphate. Similarly, potential dephosphorylation of CLR01 by brain homogenates was measured. For these experiments, one brain hemisphere was homogenized by sonication in the presence of cOmplete protease-inhibitor cocktail (Roche, Penzberg, Germany). Protein concentration was measured using a BCA Protein Assay Kit (Pierce, Rockford, Illinois). […]

T1 sequence (P19111 20-533): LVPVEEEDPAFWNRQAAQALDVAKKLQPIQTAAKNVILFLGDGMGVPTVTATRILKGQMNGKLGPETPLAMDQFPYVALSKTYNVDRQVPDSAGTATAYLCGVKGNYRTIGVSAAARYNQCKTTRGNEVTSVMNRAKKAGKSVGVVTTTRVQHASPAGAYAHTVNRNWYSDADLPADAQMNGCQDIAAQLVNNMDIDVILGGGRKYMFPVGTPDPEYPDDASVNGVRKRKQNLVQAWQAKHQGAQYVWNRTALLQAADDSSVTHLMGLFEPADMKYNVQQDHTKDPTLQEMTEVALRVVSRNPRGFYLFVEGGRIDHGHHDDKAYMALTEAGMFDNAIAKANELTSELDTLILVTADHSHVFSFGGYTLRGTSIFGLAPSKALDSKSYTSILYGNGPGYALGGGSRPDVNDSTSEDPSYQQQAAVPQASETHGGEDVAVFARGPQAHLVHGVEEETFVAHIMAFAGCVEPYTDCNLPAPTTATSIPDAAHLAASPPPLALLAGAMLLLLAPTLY

SMILES: O=P(O)(O)Oc1c2c(c(OP(=O)(O)O)c3c1C1CC3c3cc4c(cc31)C1CC4c3ccccc31)C1CC2c2cc3c(cc21)C1CC3c2ccccc21 [CLR01]
- Effect on AD-like brain pathology (3×Tg mouse model of AD; SC, 40 μg/kg/day): significant decrease in amyloid plaque burden and hyperphosphorylated tau
- Effect on APP processing (3×Tg mouse model of AD; treated AD mice): did not affect processing of amyloid β-protein precursor (APP)
- pIC50 [1]: 5.48
- Stability [2]: 100%
- pIC50 [3]: 3.74
- Stability [4]: 100%
- Brain radioactivity levels over time ([5]; 0.5 - 72 h post-injection, IV): did not change significantly up to 72 h post-injection
- Brain penetration, % of blood ([5]; 1× CLR01 dose, 1 h, 22-m old WT mice): 0.86 ± 0.30%
- Brain penetration, % of blood ([5]; 5× CLR01 dose (59.3 μg/g), 1 h, 22-m old WT mice): 0.97 ± 0.28%
- Absolute amount of radioactivity in the brain relative to 1× dose ([5]; 5× CLR01 dose, 22-m old WT mice, on average): 5 times
- Blood radioactivity levels, % of the injected levels ([5]; 12-m old 3×Tg mice): 40 ± 6%
- Blood radioactivity levels, % of the injected levels ([5]; 12-m old WT mice): 39 ± 13%
- Brain radioactivity after double injection compared to one injection ([5]; 1 h, 22-m old WT mice): 3.3 ×
- Brain-radioactivity levels as a percentage of blood-radioactivity levels (CPM/g)/(CPM/ml) ([5]; 1 h following IV injection, 2-m old 3×Tg mice): 3.09 ± 0.55%
- Brain-radioactivity levels as a percentage of blood-radioactivity levels (CPM/g)/(CPM/ml) ([5]; 1 h following IV injection, 2-m old WT mice): 2.68 ± 0.31%
- Brain-radioactivity levels as a percentage of blood-radioactivity levels (CPM/g)/(CPM/ml) ([5]; 1 h following IV injection, 12-m old 3×Tg mice): 1.43 ± 0.17%
- Brain-radioactivity levels as a percentage of blood-radioactivity levels (CPM/g)/(CPM/ml) ([5]; 1 h following IV injection, 12-m old WT mice): 2.11 ± 0.69%
- Brain-radioactivity levels as a percentage of blood-radioactivity levels (CPM/g)/(CPM/ml) ([5]; 1 h following IV injection, 24-m old 3×Tg mice): 1.45 ± 0.28%
- Brain-radioactivity levels as a percentage of blood-radioactivity levels (CPM/g)/(CPM/ml) ([5]; 1 h following IV injection, 24-m old WT mice): 0.86 ± 0.17%
- Brain-radioactivity levels as a percentage of blood-radioactivity levels, over all groups ([5]; 1 h following IV injection, depending on age and genotype (WT versus 3×Tg)): 0.86–3.09% and 1 - 3% and ~ 2%
- Brain radioactivity after double injection compared to one injection ([5]; 3 h, 22-m old WT mice): 1.6 ×
- Brain radioactivity after double injection compared to one injection ([5]; 8 h, 22-m old WT mice): 1.9 ×
- Radioactivity observed at 0.5 h remaining in the blood ([5]; after 8 h, IV): 5 - 10%
- Brain CLR01 radioactivity levels per g of brain, most group × time combinations ([5]; single IV injection 11.86 μg/g): 10,000 - 20,000 CPM/g
- Route of excretion (urine radioactivity, qualitative) ([5]; urine collected between injection and euthanasia): excreted through the urine
- Solubility in aqueous solutions [6]: soluble at millimolar concentrations
- Inorganic phosphate released on incubation with ALP [7]: undetectable levels of inorganic phosphate
